Reference: ChEMBL document CHEMBL3860098, “Sulfamide as Zinc Binding Motif in Small Molecule Inhibitors of Activated Thrombin Activatable Fibrinolysis Inhibitor (TAFIa)” (J Med Chem, 2016)

How the values were obtained:
Carboxypeptidase B2 = target: T1, Carboxypeptidase B2 (Homo sapiens, UniProt Q96IY4)
T1 sequence (Q96IY4 whole entry): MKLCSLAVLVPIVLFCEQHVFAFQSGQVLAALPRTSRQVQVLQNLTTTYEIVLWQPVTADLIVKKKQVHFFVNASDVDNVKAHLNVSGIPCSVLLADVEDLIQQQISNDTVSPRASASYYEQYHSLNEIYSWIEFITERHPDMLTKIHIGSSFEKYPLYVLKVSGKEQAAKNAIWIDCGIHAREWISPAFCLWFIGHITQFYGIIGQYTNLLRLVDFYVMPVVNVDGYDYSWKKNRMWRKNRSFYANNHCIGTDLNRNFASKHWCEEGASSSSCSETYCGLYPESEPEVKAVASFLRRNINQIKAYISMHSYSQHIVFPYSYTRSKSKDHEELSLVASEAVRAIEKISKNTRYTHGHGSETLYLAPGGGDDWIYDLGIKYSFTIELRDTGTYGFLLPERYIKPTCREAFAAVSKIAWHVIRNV
Description: Inhibition of activated human plasma TAFI incubated for 15 mins by chromogenic assay

[1] = Aqueous solubility of the compound at pH 7.4 at 25 degC; assay type: physicochemical
Cytochrome P450 1A1 = target: T2, Cytochrome P450 1A1 (Homo sapiens, UniProt P04798); test: Induction of CYP1A1 (unknown origin); assay type: ADME
T2 sequence (P04798 whole entry): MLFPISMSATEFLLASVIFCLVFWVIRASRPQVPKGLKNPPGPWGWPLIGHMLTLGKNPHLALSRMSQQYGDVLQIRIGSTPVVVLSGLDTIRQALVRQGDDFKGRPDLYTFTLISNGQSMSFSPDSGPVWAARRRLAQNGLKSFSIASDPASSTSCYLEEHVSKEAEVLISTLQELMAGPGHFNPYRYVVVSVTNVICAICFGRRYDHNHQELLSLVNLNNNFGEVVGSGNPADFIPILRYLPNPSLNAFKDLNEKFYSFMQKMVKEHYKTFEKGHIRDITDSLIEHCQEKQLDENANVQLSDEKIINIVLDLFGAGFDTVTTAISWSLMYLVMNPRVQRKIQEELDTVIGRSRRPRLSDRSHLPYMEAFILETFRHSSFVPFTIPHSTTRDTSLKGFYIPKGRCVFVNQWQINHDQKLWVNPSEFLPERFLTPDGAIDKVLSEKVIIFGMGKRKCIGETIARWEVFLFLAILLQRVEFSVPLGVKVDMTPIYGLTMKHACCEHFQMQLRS

[2] = Drug metabolism in Sprague-Dawley rat liver microsomes assessed as CYP450/FMO-mediated oxidative metabolism at 5 uM after 20 mins in presence of NADPH; assay type: ADME; details: read-out: Drug metabolism
[3] = Intrinsic clearance in human hepatocytes assessed per 10^6 cells; assay type: ADME, cell-based, Hepatocyte
[4] = Lipophilicity, log D of the compound at pH 7.4 at 25 degC; assay type: physicochemical; details: buffer
[5] = Drug metabolism in Swiss CD1 mouse liver microsomes assessed as CYP450/FMO-mediated oxidative metabolism at 5 uM after 20 mins in presence of NADPH; assay type: ADME; details: read-out: Drug metabolism
Cytochrome P450 1A2 = target: T3, Cytochrome P450 1A2 (Homo sapiens, UniProt P05177); test: Induction of CYP1A2 (unknown origin); assay type: ADME
T3 sequence (P05177 whole entry): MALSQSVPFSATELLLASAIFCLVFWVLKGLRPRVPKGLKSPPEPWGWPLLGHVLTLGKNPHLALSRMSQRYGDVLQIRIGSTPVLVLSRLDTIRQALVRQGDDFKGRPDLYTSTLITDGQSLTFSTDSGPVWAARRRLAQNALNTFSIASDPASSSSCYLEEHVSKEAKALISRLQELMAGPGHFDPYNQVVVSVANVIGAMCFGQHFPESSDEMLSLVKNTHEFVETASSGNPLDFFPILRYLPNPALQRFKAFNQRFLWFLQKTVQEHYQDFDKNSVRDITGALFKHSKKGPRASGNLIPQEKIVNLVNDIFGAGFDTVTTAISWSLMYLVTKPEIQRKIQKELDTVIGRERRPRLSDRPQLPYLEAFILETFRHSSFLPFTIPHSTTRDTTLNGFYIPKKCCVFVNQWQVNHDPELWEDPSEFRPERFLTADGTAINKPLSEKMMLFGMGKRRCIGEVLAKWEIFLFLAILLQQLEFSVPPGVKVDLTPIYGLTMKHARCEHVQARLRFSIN

[6] = Drug metabolism in human liver microsomes assessed as CYP450/FMO-mediated oxidative metabolism at 5 uM after 20 mins in presence of NADPH; assay type: ADME; details: read-out: Drug metabolism
[7] = Permeability across apical to basolateral side in human Caco2/TC7 cells at 20 uM after 120 mins by UPLC/ESI-MS-MS analysis; assay type: ADME, cell-based; details: Caco-2
[8] = target: Voltage-gated inwardly rectifying potassium channel KCNH2 (Homo sapiens, UniProt Q12809); test: Inhibition of recombinant human ERG expressed in CHO cells by patch clamp method; assay type: cell-based
Cytochrome P450 3A4 = Cytochrome P450 3A4 (Homo sapiens, UniProt P08684); test: Induction of CYP3A4 (unknown origin); assay type: ADME
Chain of Cytochrome P450 3A4 (P08684 whole entry): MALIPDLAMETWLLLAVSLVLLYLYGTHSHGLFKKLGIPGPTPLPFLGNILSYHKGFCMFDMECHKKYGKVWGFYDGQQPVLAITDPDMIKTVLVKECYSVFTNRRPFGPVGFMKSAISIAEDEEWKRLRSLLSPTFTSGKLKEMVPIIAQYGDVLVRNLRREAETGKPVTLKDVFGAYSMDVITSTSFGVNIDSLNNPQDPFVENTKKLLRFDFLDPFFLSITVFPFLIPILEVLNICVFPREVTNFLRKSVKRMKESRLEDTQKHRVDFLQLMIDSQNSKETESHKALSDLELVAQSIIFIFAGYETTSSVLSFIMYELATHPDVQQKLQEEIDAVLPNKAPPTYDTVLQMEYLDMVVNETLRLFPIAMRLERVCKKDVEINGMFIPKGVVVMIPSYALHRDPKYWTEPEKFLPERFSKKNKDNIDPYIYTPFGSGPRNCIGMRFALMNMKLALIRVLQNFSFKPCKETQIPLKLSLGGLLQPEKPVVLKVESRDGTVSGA

Chain of Voltage-gated inwardly rectifying potassium channel KCNH2 (Q12809 whole entry): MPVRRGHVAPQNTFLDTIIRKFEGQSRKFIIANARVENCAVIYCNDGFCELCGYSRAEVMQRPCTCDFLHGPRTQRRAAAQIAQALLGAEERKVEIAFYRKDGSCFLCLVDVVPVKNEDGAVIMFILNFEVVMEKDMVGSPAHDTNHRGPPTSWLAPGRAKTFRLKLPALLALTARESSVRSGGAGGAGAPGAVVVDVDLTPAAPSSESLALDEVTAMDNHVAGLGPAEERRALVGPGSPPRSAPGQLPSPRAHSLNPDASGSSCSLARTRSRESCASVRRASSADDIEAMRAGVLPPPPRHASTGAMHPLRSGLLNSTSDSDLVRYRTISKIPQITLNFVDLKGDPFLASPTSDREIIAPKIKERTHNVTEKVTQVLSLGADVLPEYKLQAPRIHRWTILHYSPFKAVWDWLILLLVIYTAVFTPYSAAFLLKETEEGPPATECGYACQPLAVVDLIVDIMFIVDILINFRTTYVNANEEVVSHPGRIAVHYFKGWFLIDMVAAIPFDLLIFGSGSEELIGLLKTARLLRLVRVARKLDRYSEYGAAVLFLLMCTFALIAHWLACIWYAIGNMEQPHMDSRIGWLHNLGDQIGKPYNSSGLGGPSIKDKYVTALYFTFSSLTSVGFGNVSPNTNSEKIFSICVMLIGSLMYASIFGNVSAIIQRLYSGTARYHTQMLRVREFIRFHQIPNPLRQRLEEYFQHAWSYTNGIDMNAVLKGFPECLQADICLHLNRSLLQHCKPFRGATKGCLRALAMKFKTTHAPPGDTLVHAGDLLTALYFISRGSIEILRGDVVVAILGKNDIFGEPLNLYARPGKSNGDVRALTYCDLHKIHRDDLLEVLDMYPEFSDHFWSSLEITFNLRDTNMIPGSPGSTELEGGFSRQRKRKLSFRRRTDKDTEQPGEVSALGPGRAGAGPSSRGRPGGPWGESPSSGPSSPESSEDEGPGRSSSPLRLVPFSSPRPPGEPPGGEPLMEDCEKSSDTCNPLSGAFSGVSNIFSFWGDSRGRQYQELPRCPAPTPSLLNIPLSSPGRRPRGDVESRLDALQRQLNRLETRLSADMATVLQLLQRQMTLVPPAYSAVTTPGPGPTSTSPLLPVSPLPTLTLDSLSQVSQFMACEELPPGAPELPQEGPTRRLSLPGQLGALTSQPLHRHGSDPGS

Question: Which IC50 (Carboxypeptidase B2) does the source give for NCCCC[C@H](NS(N)(=O)=O)C(=O)O here?
Answer: 15 µM

Question: For CC1(C)C2CCC1(C)C(OC(=O)[C@H](CC1CCCCC1)NS(=O)(=O)N[C@@H](CCCCN)C(=O)O)C2 (some centres undefined), which IC50 (Carboxypeptidase B2) is on record?
Answer: 6.4 µM

Question: For CC1(C)[C@@H]2CC[C@@]1(C)[C@@H](NC(=O)[C@H](CC1CCCCC1)NS(=O)(=O)N[C@@H](CCCCNC(N)=O)C(=O)O)C2, which IC50 (Carboxypeptidase B2) is on record?
Answer: > 30 µM

Question: What does the source list for CC1(C)[C@@H]2CC[C@@]1(C)[C@@H](NC(=O)[C@H](CC1CCCCC1)NS(=O)(=O)N[C@@H](CCCCN)C(=O)O)C2.Cl?
Answer: solubility [1]: 457 µg/mL; Activity (Cytochrome P450 1A1): < 10%; metabolised at 20 min, 5 µM [2]: 8%; CLH [3]: 0.043 mL/h; logD [4]: 2.02; metabolised at 20 min, 5 µM [5]: 0%; Activity (Cytochrome P450 1A2): < 10%; metabolised at 20 min, 5 µM [6]: 21%; Papp A→B at 2 h, 20 µM [7]: 0.06 ×10⁻⁶ cm/s; IC50 [8]: > 10 µM; Activity (Cytochrome P450 3A4): < 10%

Question: With NCCCC[C@H](NS(=O)(=O)NCC(=O)NC12CC3CC(CC(C3)C1)C2)C(=O)O as the molecule, how does the IC50 (Carboxypeptidase B2) read?
Answer: > 30 µM

Question: With CC1(C)[C@@H]2CC[C@@]1(C)[C@@H](NC(=O)[C@@H](NS(=O)(=O)N[C@@H](CCCCN)C(=O)O)C1CCCCC1)C2 as the molecule, how does the IC50 (Carboxypeptidase B2) read?
Answer: 47 µM

Question: With CC1(C)[C@@H]2CC[C@@]1(C)[C@@H](NC(=O)[C@H](CC1CCCCC1)NS(=O)(=O)N[C@@H](CCCCO)C(=O)O)C2 as the molecule, how does the IC50 (Carboxypeptidase B2) read?
Answer: > 30 µM

Question: With C[C@H](NS(=O)(=O)N[C@@H](CCCCN)C(=O)O)C(=O)NC12CC3CC(CC(C3)C1)C2 as the molecule, how does the IC50 (Carboxypeptidase B2) read?
Answer: > 30 µM

Question: Which IC50 (Carboxypeptidase B2) does the source give for CC(C)(C)NC(=O)[C@H](CC1CCCCC1)NS(=O)(=O)N[C@@H](CCCCN)C(=O)O here?
Answer: 6.7 µM
